pIC50: −log10 of the molar value.
Experiments:
[1] = molecular target: Mitogen-activated protein kinase 14 (Homo sapiens, UniProt Q16539); experiment: Inhibition of p38 alpha
[2] = molecular target: T1, Mitogen-activated protein kinase 8 (Homo sapiens, UniProt P45983); experiment: Inhibition of JNK1
[3] = molecular target: Protein kinase C beta type (Homo sapiens, UniProt P05771); experiment: Inhibition of PKC beta2
[4] = molecular target: T2, Tyrosine-protein kinase ZAP-70 (Homo sapiens, UniProt P43403); experiment: Inhibition of human ZAP70 (Leu325 to Ala619) expressed in Sf9 cells by coupled spectrophotometric enzyme assay; assay type: cell-based
T2 sequence (P43403 whole entry): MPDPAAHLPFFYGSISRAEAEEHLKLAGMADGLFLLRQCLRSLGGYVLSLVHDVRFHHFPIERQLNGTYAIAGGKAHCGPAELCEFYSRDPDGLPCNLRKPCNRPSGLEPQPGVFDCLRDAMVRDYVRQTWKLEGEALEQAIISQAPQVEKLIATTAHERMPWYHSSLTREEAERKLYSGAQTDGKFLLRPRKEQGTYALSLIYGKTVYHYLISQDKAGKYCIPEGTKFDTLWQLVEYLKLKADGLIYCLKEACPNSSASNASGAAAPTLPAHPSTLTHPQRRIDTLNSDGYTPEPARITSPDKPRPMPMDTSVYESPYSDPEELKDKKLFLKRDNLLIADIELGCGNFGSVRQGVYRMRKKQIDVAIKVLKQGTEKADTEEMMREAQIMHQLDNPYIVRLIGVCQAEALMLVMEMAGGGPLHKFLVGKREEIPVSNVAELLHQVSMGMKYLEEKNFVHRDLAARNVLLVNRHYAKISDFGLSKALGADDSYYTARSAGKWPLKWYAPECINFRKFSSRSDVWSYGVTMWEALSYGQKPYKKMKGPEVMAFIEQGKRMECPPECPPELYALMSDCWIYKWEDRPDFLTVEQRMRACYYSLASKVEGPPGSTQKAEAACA

[5] = molecular target: T3, Epidermal growth factor receptor (Homo sapiens, UniProt P00533); experiment: Inhibition of EGFR
T3 sequence (P00533 whole entry): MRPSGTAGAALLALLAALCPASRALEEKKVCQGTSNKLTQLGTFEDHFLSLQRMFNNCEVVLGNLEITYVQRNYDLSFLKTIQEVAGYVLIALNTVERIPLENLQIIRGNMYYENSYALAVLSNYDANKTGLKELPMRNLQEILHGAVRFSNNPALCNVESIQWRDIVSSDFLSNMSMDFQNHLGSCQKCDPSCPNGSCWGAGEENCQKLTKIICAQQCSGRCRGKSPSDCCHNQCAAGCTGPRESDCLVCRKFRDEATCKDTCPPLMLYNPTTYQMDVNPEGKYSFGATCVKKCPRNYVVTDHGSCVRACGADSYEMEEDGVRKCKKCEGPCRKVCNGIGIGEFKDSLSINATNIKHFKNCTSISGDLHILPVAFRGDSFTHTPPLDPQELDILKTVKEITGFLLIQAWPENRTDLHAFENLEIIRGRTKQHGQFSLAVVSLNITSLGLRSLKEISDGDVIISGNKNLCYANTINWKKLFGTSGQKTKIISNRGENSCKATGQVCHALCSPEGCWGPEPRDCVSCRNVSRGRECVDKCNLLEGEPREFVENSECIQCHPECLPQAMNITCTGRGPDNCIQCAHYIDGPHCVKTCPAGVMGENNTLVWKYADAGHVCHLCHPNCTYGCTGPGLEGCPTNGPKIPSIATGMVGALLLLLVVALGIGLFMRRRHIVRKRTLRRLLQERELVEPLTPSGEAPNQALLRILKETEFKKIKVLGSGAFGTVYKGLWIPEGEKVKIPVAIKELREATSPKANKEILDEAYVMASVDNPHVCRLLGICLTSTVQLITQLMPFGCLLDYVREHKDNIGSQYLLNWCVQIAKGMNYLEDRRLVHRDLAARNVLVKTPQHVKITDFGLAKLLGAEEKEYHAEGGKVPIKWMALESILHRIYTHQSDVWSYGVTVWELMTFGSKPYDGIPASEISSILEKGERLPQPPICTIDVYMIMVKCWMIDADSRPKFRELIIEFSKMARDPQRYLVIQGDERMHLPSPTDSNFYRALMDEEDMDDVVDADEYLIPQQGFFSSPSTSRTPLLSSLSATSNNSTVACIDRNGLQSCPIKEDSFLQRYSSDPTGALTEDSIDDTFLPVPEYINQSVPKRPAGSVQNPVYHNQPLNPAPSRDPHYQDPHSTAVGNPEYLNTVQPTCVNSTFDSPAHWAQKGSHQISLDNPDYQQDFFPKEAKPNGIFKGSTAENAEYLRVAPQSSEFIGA

[6] = molecular target: Tyrosine-protein kinase Lck (Homo sapiens, UniProt P06239); experiment: Inhibition of Lck
Chain of Tyrosine-protein kinase Lck (P06239 whole entry): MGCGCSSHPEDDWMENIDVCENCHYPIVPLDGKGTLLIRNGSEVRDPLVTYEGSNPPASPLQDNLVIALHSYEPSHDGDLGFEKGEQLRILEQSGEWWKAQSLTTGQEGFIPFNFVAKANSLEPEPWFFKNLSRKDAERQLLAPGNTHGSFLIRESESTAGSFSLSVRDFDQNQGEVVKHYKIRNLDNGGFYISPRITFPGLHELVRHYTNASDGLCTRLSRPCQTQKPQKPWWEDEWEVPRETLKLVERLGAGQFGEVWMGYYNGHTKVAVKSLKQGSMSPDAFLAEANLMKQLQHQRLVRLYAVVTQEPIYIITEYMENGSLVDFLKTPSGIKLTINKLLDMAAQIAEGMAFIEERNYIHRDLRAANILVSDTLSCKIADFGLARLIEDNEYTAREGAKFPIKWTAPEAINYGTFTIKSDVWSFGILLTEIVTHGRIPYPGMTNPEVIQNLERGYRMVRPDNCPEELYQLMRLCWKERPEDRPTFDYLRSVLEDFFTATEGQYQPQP

[7] = molecular target: Mitogen-activated protein kinase 3 (Homo sapiens, UniProt P27361); experiment: Inhibition of ERK1
Chain of Mitogen-activated protein kinase 3 (P27361 whole entry): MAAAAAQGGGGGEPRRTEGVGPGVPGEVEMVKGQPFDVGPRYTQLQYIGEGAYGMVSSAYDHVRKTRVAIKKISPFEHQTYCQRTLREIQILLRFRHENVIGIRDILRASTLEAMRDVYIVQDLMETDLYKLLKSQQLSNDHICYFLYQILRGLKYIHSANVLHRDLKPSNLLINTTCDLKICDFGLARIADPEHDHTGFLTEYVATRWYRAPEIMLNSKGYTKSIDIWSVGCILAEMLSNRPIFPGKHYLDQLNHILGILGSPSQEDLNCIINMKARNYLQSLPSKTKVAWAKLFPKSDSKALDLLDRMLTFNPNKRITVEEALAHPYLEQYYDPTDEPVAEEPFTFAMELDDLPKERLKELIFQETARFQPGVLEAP

[8] = molecular target: Proto-oncogene tyrosine-protein kinase Src (Homo sapiens, UniProt P12931); experiment: Inhibition of Src
Chain of Proto-oncogene tyrosine-protein kinase Src (P12931 2-536 limits assumed): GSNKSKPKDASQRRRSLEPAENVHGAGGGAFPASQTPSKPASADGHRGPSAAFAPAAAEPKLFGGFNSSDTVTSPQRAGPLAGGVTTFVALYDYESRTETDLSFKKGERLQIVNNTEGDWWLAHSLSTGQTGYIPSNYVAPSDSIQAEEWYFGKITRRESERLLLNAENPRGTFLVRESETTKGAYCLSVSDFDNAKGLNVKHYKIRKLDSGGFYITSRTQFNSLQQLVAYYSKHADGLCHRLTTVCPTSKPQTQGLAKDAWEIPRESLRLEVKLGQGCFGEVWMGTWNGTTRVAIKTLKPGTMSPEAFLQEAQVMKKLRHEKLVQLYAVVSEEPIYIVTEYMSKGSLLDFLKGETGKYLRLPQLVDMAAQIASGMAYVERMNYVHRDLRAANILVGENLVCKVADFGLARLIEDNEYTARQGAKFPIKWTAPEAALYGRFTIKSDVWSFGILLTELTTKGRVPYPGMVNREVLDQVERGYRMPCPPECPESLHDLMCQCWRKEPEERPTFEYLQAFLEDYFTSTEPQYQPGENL

[9] = molecular target: Tyrosine-protein kinase SYK (Homo sapiens) (UniProt P43405); experiment: Inhibition of Syk
[10] = molecular target: T3, Epidermal growth factor receptor; experiment: Inhibition of EGFR at 10 uM
[11] = molecular target: T1, Mitogen-activated protein kinase 8; experiment: Inhibition of JNK1 at 10 uM

Chain of Mitogen-activated protein kinase 14 (Q16539 whole entry): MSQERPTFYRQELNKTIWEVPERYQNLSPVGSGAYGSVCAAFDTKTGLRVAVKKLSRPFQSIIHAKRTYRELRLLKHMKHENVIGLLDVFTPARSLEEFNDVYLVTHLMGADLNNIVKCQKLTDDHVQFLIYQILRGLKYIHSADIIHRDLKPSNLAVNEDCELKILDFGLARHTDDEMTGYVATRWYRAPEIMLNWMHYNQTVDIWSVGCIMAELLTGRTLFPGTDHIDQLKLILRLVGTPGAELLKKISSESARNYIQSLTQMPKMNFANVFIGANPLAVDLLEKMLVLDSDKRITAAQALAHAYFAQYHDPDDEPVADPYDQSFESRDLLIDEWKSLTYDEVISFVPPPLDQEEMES
Chain of Protein kinase C beta type (P05771 whole entry): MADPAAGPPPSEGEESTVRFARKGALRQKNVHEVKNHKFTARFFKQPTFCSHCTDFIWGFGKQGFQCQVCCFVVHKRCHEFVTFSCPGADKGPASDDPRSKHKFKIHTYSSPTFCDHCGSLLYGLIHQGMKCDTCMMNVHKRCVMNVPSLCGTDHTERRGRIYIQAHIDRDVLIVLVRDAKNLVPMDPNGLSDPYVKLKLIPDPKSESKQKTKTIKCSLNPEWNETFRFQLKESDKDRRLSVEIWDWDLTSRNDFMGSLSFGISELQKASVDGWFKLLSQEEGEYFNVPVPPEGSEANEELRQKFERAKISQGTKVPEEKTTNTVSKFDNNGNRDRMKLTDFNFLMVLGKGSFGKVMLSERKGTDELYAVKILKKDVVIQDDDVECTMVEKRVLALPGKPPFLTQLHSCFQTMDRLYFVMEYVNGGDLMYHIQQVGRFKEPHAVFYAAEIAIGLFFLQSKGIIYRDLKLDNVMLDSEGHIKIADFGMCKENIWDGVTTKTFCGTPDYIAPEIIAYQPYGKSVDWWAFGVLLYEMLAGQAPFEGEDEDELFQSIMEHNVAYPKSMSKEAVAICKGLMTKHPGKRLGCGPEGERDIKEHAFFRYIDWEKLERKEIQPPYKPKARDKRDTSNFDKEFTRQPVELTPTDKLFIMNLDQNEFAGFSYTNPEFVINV
T1 sequence (P45983 whole entry): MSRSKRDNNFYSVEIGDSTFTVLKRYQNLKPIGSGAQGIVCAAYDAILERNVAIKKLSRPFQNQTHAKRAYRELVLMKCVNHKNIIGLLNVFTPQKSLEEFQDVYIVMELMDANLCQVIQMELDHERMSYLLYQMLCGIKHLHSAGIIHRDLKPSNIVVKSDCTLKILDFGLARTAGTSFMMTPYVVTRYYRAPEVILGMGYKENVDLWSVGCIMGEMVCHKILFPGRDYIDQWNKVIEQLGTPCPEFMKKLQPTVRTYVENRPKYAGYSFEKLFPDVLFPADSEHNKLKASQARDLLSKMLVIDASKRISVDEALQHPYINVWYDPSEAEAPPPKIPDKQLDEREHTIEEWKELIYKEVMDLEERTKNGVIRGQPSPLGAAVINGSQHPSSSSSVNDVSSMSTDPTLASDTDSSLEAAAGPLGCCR

Row | pIC50 [1] | pIC50 [2] | pIC50 [3] | pIC50 [4] | pIC50 [5] | pIC50 [6] | pIC50 [7] | pIC50 [8] | pIC50 [9] | inhibition [10] [%] | inhibition [11] [%] | SMILES
1 | < 5.00 | < 5.00 | < 5.00 | 7.06 | < 5.00 | < 4.90 | < 5.00 | < 5.00 |  |  |  | CCOC(=O)/C=C/c1ccc(CNc2nc(Nc3cc(OC)cc(OC)c3)c(C(N)=O)c3nccn23)cc1
2 |  |  |  |  |  |  |  |  | < 3.30 |  |  | CC(=O)N[C@@H](Cc1ccc(OP(=O)(O)O)cc1)C(=O)N[C@@H](CO)c1nc(Cc2ccc(C(F)(F)F)cc2)no1
3 |  |  |  | 6.40 |  | < 4.60 |  |  |  |  |  | COc1cc(Nc2nc(NCc3ccccc3)n3ccnc3c2C(N)=O)cc(OC)c1
4 | < 5.00 |  | < 5.00 | 7.33 |  | < 5.00 | < 5.00 | < 5.00 |  | 89 | 90 | COc1cc(Nc2nc(NCc3ccc(/C=C/C(=O)O)cc3)n3ccnc3c2C(N)=O)cc(OC)c1
